Reference: ChEMBL document CHEMBL1221200, “Diarylquinolines target subunit c of mycobacterial ATP synthase” (Nat Chem Biol, 2007)
≈ marks a conversion by molar mass, not a printed value. Calls of active or inactive are those of the source. The rule behind the calls is not given here.

Assays:
[1] = tested on: Mycolicibacterium smegmatis; assay: Binding affinity to Mycobacterium smegmatis ATCC 607 ATP synthase subunit beta by mass spectroscopy
[2] = target: ATP synthase subunit alpha (Bacillus sp.) (UniProt P09219); assay: Binding affinity to Bacillus PS3 ATP synthase subunit alpha by mass spectroscopy
Chain of ATP synthase subunit alpha (Bacillus sp.) (P09219 whole entry): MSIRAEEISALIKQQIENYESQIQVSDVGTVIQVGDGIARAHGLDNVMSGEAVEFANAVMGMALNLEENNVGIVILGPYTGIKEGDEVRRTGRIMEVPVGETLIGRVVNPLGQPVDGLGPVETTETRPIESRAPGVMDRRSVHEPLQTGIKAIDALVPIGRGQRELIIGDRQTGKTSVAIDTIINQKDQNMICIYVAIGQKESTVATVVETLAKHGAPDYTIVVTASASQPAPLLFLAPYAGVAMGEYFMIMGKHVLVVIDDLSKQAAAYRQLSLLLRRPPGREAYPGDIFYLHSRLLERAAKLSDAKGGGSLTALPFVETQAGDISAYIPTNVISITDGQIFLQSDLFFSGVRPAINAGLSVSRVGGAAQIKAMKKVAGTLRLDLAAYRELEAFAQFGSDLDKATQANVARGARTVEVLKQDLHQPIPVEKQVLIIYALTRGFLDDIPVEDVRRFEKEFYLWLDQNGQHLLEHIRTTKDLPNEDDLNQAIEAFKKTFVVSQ

[3] = tested on: Mycolicibacterium smegmatis; assay: Binding affinity to Mycobacterium smegmatis ATCC 607 ATP synthase subunit alpha by mass spectroscopy
[4] = target: ATP synthase subunit beta (Bacillus sp.) (UniProt P07677); assay: Binding affinity to Bacillus PS3 ATP synthase subunit beta by mass spectroscopy
Chain of ATP synthase subunit beta (Bacillus sp.) (P07677 whole entry): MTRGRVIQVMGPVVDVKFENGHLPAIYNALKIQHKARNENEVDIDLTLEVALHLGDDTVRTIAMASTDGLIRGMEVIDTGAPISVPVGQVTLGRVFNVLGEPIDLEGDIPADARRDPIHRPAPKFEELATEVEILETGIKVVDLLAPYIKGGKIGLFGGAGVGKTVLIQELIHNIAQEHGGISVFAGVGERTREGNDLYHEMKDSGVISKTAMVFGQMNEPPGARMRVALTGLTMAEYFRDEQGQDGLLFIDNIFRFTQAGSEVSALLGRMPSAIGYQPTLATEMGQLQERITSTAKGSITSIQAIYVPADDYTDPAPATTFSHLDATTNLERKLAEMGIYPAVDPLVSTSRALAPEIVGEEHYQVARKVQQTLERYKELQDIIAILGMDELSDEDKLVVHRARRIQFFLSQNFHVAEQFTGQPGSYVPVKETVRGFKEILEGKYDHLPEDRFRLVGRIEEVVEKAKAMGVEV

[5] = tested on: Mycobacterium tuberculosis; assay: Antimicrobial activity against wild-type Mycobacterium tuberculosis expressing ATP synthase AtpE assessed as growth inhibition in early log-phase by 7H10 agar dilution method; type: functional, organism-based
[6] = target: ATP synthase subunit c (Mycobacterium tuberculosis (strain CDC 1551 / Oshkosh)) (UniProt P9WPS0); assay: Inhibition of Mycobacterium tuberculosis ATP synthase subunit c-mediated ATP synthesis after […] by luminometry
Chain of ATP synthase subunit c (Mycobacterium tuberculosis (strain CDC 1551 / Oshkosh)) (P9WPS0 whole entry): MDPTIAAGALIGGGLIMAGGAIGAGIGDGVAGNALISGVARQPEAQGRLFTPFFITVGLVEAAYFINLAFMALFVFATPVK

[7] = tested on: Mycolicibacterium smegmatis; assay: Antimicrobial activity against Mycobacterium smegmatis ATCC 607 by alamar blue assay; type: functional
[8] = tested on: Mycobacterium tuberculosis; assay: Antimicrobial activity against Mycobacterium tuberculosis by alamar blue assay; type: functional
[9] = target: Putative uncharacterized protein atpE (Mycolicibacterium smegmatis, UniProt Q5TIX5); assay: Inhibition of Mycobacterium smegmatis ATCC 607 ATP synthase subunit c-mediated ATP synthesis after 60 mins by luminometry
Chain of Putative uncharacterized protein atpE (Q5TIX5 whole entry): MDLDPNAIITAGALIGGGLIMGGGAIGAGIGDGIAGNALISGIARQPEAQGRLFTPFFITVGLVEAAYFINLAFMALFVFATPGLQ

[10] = tested on: Mycolicibacterium smegmatis; assay: Antimicrobial activity against wild type Mycobacterium smegmatis ATCC 607 expressing vector pSD5 by 7H10 agar dilution method; type: functional
[11] = tested on: Mycobacterium tuberculosis; assay: Antimicrobial activity against Mycobacterium tuberculosis H37Rv by 7H9 broth dilution method; type: functional
[12] = tested on: Mycobacterium tuberculosis; assay: Antimicrobial activity against Mycobacterium tuberculosis H37Rv by […] dilution method; type: functional
[13] = tested on: Mycolicibacterium smegmatis; assay: Ratio of MIC for Mycobacterium smegmatis isolate R09 expressing ATP synthase AtpE D32V mutant protein to MIC for wild type Mycobacterium smegmatis; type: functional
[14] = tested on: Mycolicibacterium smegmatis; assay: Antimicrobial activity against wild type Mycobacterium smegmatis ATCC 607 expressing vector pSD5 by 7H9 agar dilution method; type: functional
[15] = tested on: Mycolicibacterium smegmatis; assay: Antimicrobial activity against wild type Mycobacterium smegmatis ATCC 607 by 7H9 agar dilution method; type: functional
[16] = tested on: Mycolicibacterium smegmatis; assay: Antimicrobial activity against wild-type Mycobacterium smegmatis ATCC 607 expressing ATP synthase AtpE subunit by 7H10 agar dilution method; type: functional
[17] = tested on: Mycolicibacterium smegmatis; assay: Ratio of MIC for Mycobacterium smegmatis expressing ATP synthase AtpE D32V mutant protein to MIC for wild type Mycobacterium smegmatis ATCC 607 expressing vector pSD5; type: functional
[18] = Binding affinity to Bacillus PS3 ATP synthase subunit c A63P mutant; design: species or system Bacillus sp. PS3
[19] = tested on: Mycolicibacterium smegmatis; assay: Antimicrobial activity against Mycobacterium smegmatis isolate R09 expressing ATP synthase AtpE D32V mutant protein by 7H10 agar dilution method; type: functional
[20] = tested on: Mycolicibacterium smegmatis; assay: Antimicrobial activity against Mycobacterium smegmatis expressing ATP synthase AtpE D32V mutant protein by 7H10 agar dilution method; type: functional
[21] = tested on: Mycolicibacterium smegmatis; assay: Antimicrobial activity against Mycobacterium smegmatis expressing ATP synthase AtpE D32V mutant protein by 7H9 agar dilution method; type: functional
[22] = tested on: Mycolicibacterium smegmatis; assay: Antimicrobial activity against Mycobacterium smegmatis ATCC 607 expressing ATP synthase AtpE subunit by 7H9 agar dilution method; type: functional
[23] = target: ATP synthase subunit c (Bacillus sp., UniProt P00845); assay: Binding affinity to Bacillus PS3 ATP synthase subunit c; design: species or system Bacillus sp. PS3
Chain of ATP synthase subunit c (P00845 whole entry): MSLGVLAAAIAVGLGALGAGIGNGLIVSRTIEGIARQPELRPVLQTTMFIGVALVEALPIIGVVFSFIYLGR

[24] = tested on: Mycolicibacterium smegmatis; assay: Antimicrobial activity against wild type Mycobacterium smegmatis ATCC 607 by 7H10 agar dilution method; type: functional
[25] = tested on: Mycolicibacterium smegmatis; assay: Antimicrobial activity against Mycobacterium smegmatis isolate R09 expressing ATP synthase AtpE D32V mutant protein by 7H9 agar dilution method; type: functional

Compound: COc1nc2ccc(Br)cc2cc1[C@@H](c1ccccc1)[C@@](O)(CCN(C)C)c1cccc2ccccc12
- Activity [1]: Active
- Activity [2]: Active
- Activity [3]: Active
- Activity [4]: Active
- Activity [5]: Active
- inhibition [6]: Dose-dependent effect

Compound: COc1nc2ccc(Br)cc2cc1[C@H](c1ccccc1)[C@@](O)(CCN(C)C)c1cccc2ccccc12 (racemic; 1c)
- MIC90 [7]: 7 µg/mL (≈ 12.6 µM)
- MIC90 [8]: 44 µg/mL (≈ 79.2 µM)
- IC50 [9]: 750 nM

Compound: COc1nc2ccc(Br)cc2cc1[C@H](c1ccccc1)[C@@](O)(CCN(C)C)c1cccc2ccccc12 (racemic; 1d)
- MIC90 [7]: 0.08 µg/mL (≈ 0.144 µM)
- MIC90 [8]: 1.8 µg/mL (≈ 3.24 µM)

Compound: COc1nc2ccc(Br)cc2cc1[C@@H](c1ccccc1)[C@@](O)(CCN(C)C)c1cccc2ccccc12 (single isomer, unassigned) [BEDAQUILINE]
- MIC90 [7]: 0.35 µg/mL (≈ 0.63 µM)
- MIC90 [8]: 8.8 µg/mL (≈ 15.8 µM)
- IC50 [9]: 25 nM

Compound: COc1nc2ccc(Br)cc2cc1[C@@H](c1ccccc1)[C@@](O)(CCN(C)C)c1cccc2ccccc12 [BEDAQUILINE]
- MIC [10]: 0.003 µg/mL (≈ 0.0054 µM)
- MIC [11]: 0.03 µg/mL (≈ 0.054 µM)
- MIC [12]: 0.05 µg/mL (≈ 0.09 µM)
- MIC90 [7]: 0.004 µg/mL (≈ 0.0072 µM)
- Ratio [13]: >100
- MIC90 [8]: 0.06 µg/mL (≈ 0.108 µM)
- MIC [14]: 0.003 µg/mL (≈ 0.0054 µM)
- MIC [15]: 0.003 µg/mL (≈ 0.0054 µM)
- MIC [16]: 0.003 µg/mL (≈ 0.0054 µM)
- Ratio [17]: >100
- Kd [18]: 1500 nM
- MIC [19]: 0.7 µg/mL (≈ 1.26 µM)
- MIC [20]: 0.4 µg/mL (≈ 0.72 µM)
- MIC [21]: 0.5 µg/mL (≈ 0.9 µM)
- MIC [22]: 0.003 µg/mL (≈ 0.0054 µM)
- IC50 [9]: 2.5 nM
- Kd [23]: 500 nM
- MIC [24]: 0.003 µg/mL (≈ 0.0054 µM)
- MIC [25]: 0.6 µg/mL (≈ 1.08 µM)

Compound: CO[C@H]1/C=C/O[C@@]2(C)Oc3c(C)c(O)c4c(O)c(c(/C=N/N5CCN(C)CC5)c(O)c4c3C2=O)NC(=O)/C(C)=C\C=C\[C@H](C)[C@H](O)[C@@H](C)[C@@H](O)[C@@H](C)[C@H](OC(C)=O)[C@@H]1C [RIFAMPIN]
- MIC90 ([7]; Mycolicibacterium smegmatis, ATCC 607, read-out: MIC90): 8.2 µg/mL (≈ 9.96 µM)
- MIC90 ([8]; Mycobacterium tuberculosis, read-out: MIC90): 0.13 µg/mL (≈ 0.158 µM)
